Source: US20050272677A1, “Delivery of a substance to a pre-determined site” (priority 2002, published 2005)

Assays:
[1] = Gelation experiment (gel formation in solvents); type: physicochemical; design: key to Gelation properties: g = gel; i = insoluble; p = precipitate; sol = soluble
Method: To obtain a gel or to thicken the solvent, the compound is mixed with the required solvent or a mixture of solvents in an amount between 0.01 and 50 wt. %, based on the weight of the composition. Typically, the dissolution of the components will be performed by heating (in some cases it may be helpful to homogenize the components, e.g., vortex) them together at temperatures of 20° C. to 200° C., preferably 50° C. to 150° C. Cooling these hot solutions to a preferred temperature in the range of −20° C. to 100° C., preferably 4° C. to 100° C. affords the gel or thickened solvent. […] In an alternative embodiment, the gelling agent is first dissolved in a polar or apolar solvent followed by the addition of another solvent or solvent mixture, thereby causing gelation to take place.
It will be understood that the use of the present gelling agents or thickeners to prepare a gel or to thicken a composition is also encompassed by the invention. As is well-known, gelling behavior of compounds or compositions is highly unpredictable. […] Preferably, the gelling phenomenon is thermoreversible.
In a typical gelation experiment, a carefully weighed amount of the dithienylcyclopentene derivative under investigation and 1 ml of the solvent are placed in a test tube, which is sealed and then heated until the compound is dissolved. The solution is allowed to cool to room temperature. […] The gelation process could be followed by UV-vis and CD spectroscopy as depicted in FIG. 58. At low concentrations (0.35 mM), compound D is dissolved in toluene. […] Increasing the concentration to 1.8 mM causes gelation of the solvent, which is accompanied by a change of the UV-visible spectrum, together with the appearance of a strong CD signal at 323 nm (FIG. 58, panels (a) and (c)). Similar changes in the UV-vis and CD spectrum are observed upon gelation of the 1.8 mM solution of D in toluene by cooling to a temperature below the sol-gel phase transition (from here on, referred to as gel(o)). From a plot of the increase of the CD signal versus the temperature, the sol-gel phase transition temperature of gel(o) was determined to be 29° C. for a 1.8 mM solution of D in toluene.

[2] = Gelation in the presence of surfactants and polymeric micelles; type: physicochemical; design: key: G = gel; C = crystalline; G^a: ^a= not stable
[3] = tested on: pB104 strain (MscL null E. coli); test: Growth assay of MscL mutants on agar plates with or without IPTG; type: cell-based; design: key: ++++: growth equal to cells expressing wild-type MscL; growth is indicated by ++++ to −; growth is indicated by ++++ to −; growth is indicated by ++++ to −; −: an absence of growth; conditions: pB104 with Lac-inducible plasmid; for Growth on agar plates +IPTG: with IPTG; for Growth on agar plates −IPTG: without IPTG
Method: The constructs of the MscL-6His mutants were constructed using standard molecular biology techniques. The mutants were tested in the pB104 strain (MscL null E. coli) by a growth assay on agar plates with or without IPTG (K. Yoshimura et al., 1999, Biophys. J. 77:1960-1972).
The first phenotype (++) grows like the single G22S mutant.

With `O=C(N[C@@H](Cc1ccccc1)C(=O)O)[C@H]1C[C@@H](C(=O)N[C@H](Cc2ccccc2)C(=O)O)C[C@@H](C(=O)N[C@H](Cc2ccccc2)C(=O)O)C1` [10b, CHexAmPheOH (DDL)] the solvents gelated [1] was “water”.

For `COC(=O)C[C@H](NC(=O)[C@H]1C[C@@H](C(=O)N[C@@H](CC(=O)OC)C(=O)OC)C[C@@H](C(=O)N[C@@H](CC(=O)OC)C(=O)OC)C1)C(=O)OC` [gelator 8, CHexAmAspOMe], the solvents gelated [1] was “both organic solvents and water”.

With `COC(=O)[C@H](Cc1c[nH]cn1)NC(=O)[C@H](CCSC)NC(=O)[C@@H]1C[C@H](C(=O)NC(CCSC)C(=O)N[C@H](Cc2c[nH]cn2)C(=O)OC)C[C@H](C(=O)N[C@@H](CCSC)C(=O)N[C@@H](Cc2c[nH]cn2)C(=O)OC)C1` (some centres unmarked) [gelator 14, CHexAmMetHisOMe] the solvents gelated [1] was “water”.

For racemic CHex-bisurea dihexylamine [5b], the Gelation properties ([1]; 1 N NaHCO3) was “sol”, the Gelation properties ([1]; 1 N NaOH) was “g” and the Gelation properties ([1]; 25% Ammonia) was “g”. For the same molecule, the Gelation properties ([1]; buffer PH 5.7) was “sol”, the Gelation properties ([1]; buffer PH 6.3) was “sol” and the Gelation properties ([1]; buffer PH 7.2) was “g”. The Gelation properties ([1]; buffer PH 7.9) was “g” and the Gelation properties ([1]; water) was “g”.

With `O=C(NC(Cc1ccccc1)C(=O)O)C1CC(C(=O)NC(Cc2ccccc2)C(=O)O)CC(C(=O)NC(Cc2ccccc2)C(=O)O)C1` (single isomer, unassigned) [LLL diasteroisomer, CHexAmPheOH] the solvents gelated [1] was “only gelates lower alcohols”.

With `Cc1sc(C(=O)Nc2ccccc2)cc1C1=C(c2cc(C(=O)Nc3ccccc3)sc2C)CCC1` [Compound C, 1,2-Bis(5′-(anilinocarbonyl)-2′-methyl-thien-3′-yl) cyclopentene] the solvents gelated [1] was 1-phenyloctane, toluene, n-butylether, benzene, tetralin.

For CHex-Am-Phe-Am-Borate, the solvents gelated [1] was “water and lower alcohols”.

For CHex-Am-Met-Am-EtOH, the solvents gelated [1] was “water”.

In the case of `CC(C)[C@H](NC(=O)[C@H]1C[C@@H](C(=O)N[C@H](C(=O)O)C(C)C)C[C@@H](C(=O)N[C@H](C(=O)O)C(C)C)C1)C(=O)O` [CHex-Am-Val-OH], the solvents gelated [1] is reported as “water”.

For `O=C(O)C(Cc1ccccc1)NC(=O)[C@H]1C[C@@H](C(=O)NC(Cc2ccccc2)C(=O)O)C[C@@H](C(=O)NC(Cc2ccccc2)C(=O)O)C1` (mixture of isomers) [10a, CHexAmPheOH (mixture of isomers)], the solvents gelated [1] was “water”.

In the case of `O=C(OCCO)[C@H](Cc1ccccc1)NC(=O)[C@H]1C[C@@H](C(=O)N[C@@H](Cc2ccccc2)C(=O)OCCO)C[C@@H](C(=O)N[C@@H](Cc2ccccc2)C(=O)OCCO)C1` [gelator 2, CHexAmPheOCH2CH2OH], the solvents gelated [1] is reported as “water and lower alcohols”, the Gelation properties ([2]; Nonionic (Lactose der.) < CMC) is reported as “G^a” and the Gelation properties ([2]; Nonionic (Lactose der.) > CMC) is reported as “G^a”. For the same molecule, the Gelation properties ([2]; Pluronic P 105, 5 mg · ml^−1) was “g^a”, the Gelation properties ([2]; Pluronic P 105, 100 mg · ml^−1) was “g^a” and the Gelation properties ([2]; anionic (SDS) < CMC) was “G^a”. For the same molecule, the Gelation properties ([2]; anionic (SDS) > CMC) was “G^a”, the Gelation properties ([2]; cationic (CTAB) < CMC) was “G^a” and the Gelation properties ([2]; cationic (CTAB) > CMC) was “G^a”.

With `Cc1sc(C(=O)N[C@H](C)C2CCCCC2)cc1C1=C(c2cc(C(=O)N[C@H](C)C3CCCCC3)sc2C)CCC1` [Compound E, 1,2-Bis(2′-methyl-5′-{(((R)-1-cyclohexylethyl)amino)carbonyl}thien-3′-yl)cyclopentene] the solvents gelated [1] was “hexadecane, cyclohexane, 1-phenyloctane, toluene, n-butylether, benzene, tetralin, 1,4-dioxane, and n-butyl acetate”.

In the case of CHexAmPheAmGluOH [gelator 13], the solvents gelated [1] is reported as “water”.

In the case of CHex-Am-Ser(Bzl)-Am-Borate, the solvents gelated [1] is reported as “water and lower alcohols”.

With `O=C(O)CCNC(=O)[C@H](Cc1ccccc1)NC(=O)[C@H]1C[C@@H](C(=O)N[C@@H](Cc2ccccc2)C(=O)NCCC(=O)O)C[C@@H](C(=O)N[C@@H](Cc2ccccc2)C(=O)NCCC(=O)O)C1` [gelator 12, cHexAm(L)Phe(β)AlaOH] the solvents gelated [1] was “water”.

For CHex-Am-Met-Am-Borate, the solvents gelated [1] was “water and lower alcohols”.

For (1S,2S) CHex-bisurea dihexylamine [5a], the Gelation properties ([1]; 1 N NaHCO3) was “i”, the Gelation properties ([1]; 1 N NaOH) was “i” and the Gelation properties ([1]; 25% Ammonia) was “g”. For the same molecule, the Gelation properties ([1]; buffer PH 5.7) was “sol”, the Gelation properties ([1]; buffer PH 7.2) was “p” and the Gelation properties ([1]; buffer PH 7.9) was “g”. The Gelation properties ([1]; water) was “g”.

In the case of `COC(=O)CC[C@H](NC(=O)[C@H]1C[C@@H](C(=O)N[C@@H](CCC(=O)OC)C(=O)OC)C[C@@H](C(=O)N[C@@H](CCC(=O)OC)C(=O)OC)C1)C(=O)OC` [gelator 7, CHexAmGluOMe], the solvents gelated [1] is reported as “both organic solvents and water”.

With `CC(NC(=O)[C@H](Cc1ccccc1)NC(=O)[C@H]1C[C@@H](C(=O)N[C@@H](Cc2ccccc2)C(=O)N[C@H](C)C(=O)O)C[C@@H](C(=O)N[C@@H](Cc2ccccc2)C(=O)N[C@H](C)C(=O)O)C1)C(=O)O` (some centres unmarked) [gelator 11, CHexAm(L)Phe(D)AlaOH] the solvents gelated [1] was “water and lower alcohols”.

B1: E06/G22S (protein, UniProt P0A742 1-136, looked up, variant E6H G22S)
Large-conductance …: MSIIKHFREFAMRGNVVDLAVSVIIGAAFGKIVSSLVADIIMPPLGLLIGGIDFKQFAVTLRDAQGDIPAVVMHYGVFIQNVFDFLIVAFAIFMAIKLINKLNRKKEEPAAAPAPTKEEVLLTEIRDLLKEQNNRS
For B1, the “Growth on agar plates +IPTG” value [3] was “+++” and the “Growth on agar plates −IPTG” value [3] was “++++”.

B2: R13H/G22S (protein, UniProt P0A742 1-136, looked up, variant R13H G22S)
Large-conductance …: MSIIKEFREFAMHGNVVDLAVSVIIGAAFGKIVSSLVADIIMPPLGLLIGGIDFKQFAVTLRDAQGDIPAVVMHYGVFIQNVFDFLIVAFAIFMAIKLINKLNRKKEEPAAAPAPTKEEVLLTEIRDLLKEQNNRS
For B2, the “Growth on agar plates +IPTG” value [3] was “−” and the “Growth on agar plates −IPTG” value [3] was “++++”.

B3: A11H/G22S (protein, UniProt P0A742 1-136, looked up, variant A11H G22S)
Large-conductance …: MSIIKEFREFHMRGNVVDLAVSVIIGAAFGKIVSSLVADIIMPPLGLLIGGIDFKQFAVTLRDAQGDIPAVVMHYGVFIQNVFDFLIVAFAIFMAIKLINKLNRKKEEPAAAPAPTKEEVLLTEIRDLLKEQNNRS
In the case of B3, the “Growth on agar plates +IPTG” value [3] is reported as “++” and the “Growth on agar plates −IPTG” value [3] is reported as “++++”.

B4: M12H/G22S (protein, UniProt P0A742 1-136, looked up, variant M12H G22S)
Large-conductance …: MSIIKEFREFAHRGNVVDLAVSVIIGAAFGKIVSSLVADIIMPPLGLLIGGIDFKQFAVTLRDAQGDIPAVVMHYGVFIQNVFDFLIVAFAIFMAIKLINKLNRKKEEPAAAPAPTKEEVLLTEIRDLLKEQNNRS
In the case of B4, the “Growth on agar plates +IPTG” value [3] is reported as “++” and the “Growth on agar plates −IPTG” value [3] is reported as “++++”.

B5: F10H/G22S (protein, UniProt P0A742 1-136, looked up, variant F10H G22S)
Large-conductance …: MSIIKEFREHAMRGNVVDLAVSVIIGAAFGKIVSSLVADIIMPPLGLLIGGIDFKQFAVTLRDAQGDIPAVVMHYGVFIQNVFDFLIVAFAIFMAIKLINKLNRKKEEPAAAPAPTKEEVLLTEIRDLLKEQNNRS
In the case of B5, the “Growth on agar plates +IPTG” value [3] is reported as “+” and the “Growth on agar plates −IPTG” value [3] is reported as “++++”.

B6: M12H (protein, UniProt P0A742 1-136, looked up, variant M12H)
Large-conductance …: MSIIKEFREFAHRGNVVDLAVGVIIGAAFGKIVSSLVADIIMPPLGLLIGGIDFKQFAVTLRDAQGDIPAVVMHYGVFIQNVFDFLIVAFAIFMAIKLINKLNRKKEEPAAAPAPTKEEVLLTEIRDLLKEQNNRS
For B6, the “Growth on agar plates +IPTG” value [3] was “++++” and the “Growth on agar plates −IPTG” value [3] was “++++”.

B7: A11H (protein, UniProt P0A742 1-136, looked up, variant A11H)
Large-conductance …: MSIIKEFREFHMRGNVVDLAVGVIIGAAFGKIVSSLVADIIMPPLGLLIGGIDFKQFAVTLRDAQGDIPAVVMHYGVFIQNVFDFLIVAFAIFMAIKLINKLNRKKEEPAAAPAPTKEEVLLTEIRDLLKEQNNRS
For B7, the “Growth on agar plates +IPTG” value [3] was “++++” and the “Growth on agar plates −IPTG” value [3] was “++++”.

B8: F10H (protein, UniProt P0A742 1-136, looked up, variant F10H)
Large-conductance …: MSIIKEFREHAMRGNVVDLAVGVIIGAAFGKIVSSLVADIIMPPLGLLIGGIDFKQFAVTLRDAQGDIPAVVMHYGVFIQNVFDFLIVAFAIFMAIKLINKLNRKKEEPAAAPAPTKEEVLLTEIRDLLKEQNNRS
In the case of B8, the “Growth on agar plates +IPTG” value [3] is reported as “++++” and the “Growth on agar plates −IPTG” value [3] is reported as “++++”.
